Key:
[1] = test system: Enterobacter cloacae IID 977; assay: MIC by plate method; assay type: cell-based; parameters: unit not given here; conditions: Heart Infusion agar pH 7.4, inoculum 10^4 cells per plate (10^6 cells/ml)
Procedure: (§1) The minimum inhibitory concentration (MIC) was determined by the plate method disclosed in "Chemotherapy" (Japan), Vol. 16, (1968), pages 98-99. The culture medium used was a Heart Infusion agar (pH 7.4). The number of the cells per plate used in the inoculum was 10^4 (10^6 cells/ml).

Escherichia coli NIHJ = assay: MIC by plate method; assay type: cell-based; parameters: unit not given here; conditions: Heart Infusion agar pH 7.4, inoculum 10^4 cells per plate (10^6 cells/ml)
Procedure: as §1

[2] = test system: Klebsiella pneumoniae Y-50; assay: MIC by plate method; assay type: cell-based; parameters: unit not given here; conditions: Heart Infusion agar pH 7.4, inoculum 10^4 cells per plate (10^6 cells/ml)
Procedure: as §1

[3] = test system: Proteus vulgaris GN 76 (Cephalosporinase-producing bacterium); assay: MIC by plate method; assay type: cell-based; parameters: unit not given here; conditions: Heart Infusion agar pH 7.4, inoculum 10^4 cells per plate (10^6 cells/ml)
Procedure: as §1

[4] = test system: Pseudomonas aeruginosa IFO-3445; assay: MIC by plate method; assay type: cell-based; parameters: unit not given here; conditions: Heart Infusion agar pH 7.4, inoculum 10^4 cells per plate (10^6 cells/ml)
Procedure: as §1

Serratia marcescens W-8 = assay: MIC by plate method; assay type: cell-based; parameters: unit not given here; conditions: Heart Infusion agar pH 7.4, inoculum 10^4 cells per plate (10^6 cells/ml)
Procedure: as §1

[5] = test system: Staphylococcus aureus F-19 (Penicillinase-producing bacterium); assay: MIC by plate method; assay type: cell-based; parameters: unit not given here; conditions: Heart Infusion agar pH 7.4, inoculum 10^4 cells per plate (10^6 cells/ml)
Procedure: as §1

[6] = target: T1, Cephalosporinase Pseudomonas aeruginosa TN 918 (Pseudomonas aeruginosa, UniProt P24735); assay: Resistance against β-lactamase, iodometric assay; assay type: biochemical; conditions: activity of control Cephalorigine assumed as 100
T1 construct: TN 918; endogenous in cells; host or cells: Pseudomonas aeruginosa TN 918
T1 sequence (P24735 27-397): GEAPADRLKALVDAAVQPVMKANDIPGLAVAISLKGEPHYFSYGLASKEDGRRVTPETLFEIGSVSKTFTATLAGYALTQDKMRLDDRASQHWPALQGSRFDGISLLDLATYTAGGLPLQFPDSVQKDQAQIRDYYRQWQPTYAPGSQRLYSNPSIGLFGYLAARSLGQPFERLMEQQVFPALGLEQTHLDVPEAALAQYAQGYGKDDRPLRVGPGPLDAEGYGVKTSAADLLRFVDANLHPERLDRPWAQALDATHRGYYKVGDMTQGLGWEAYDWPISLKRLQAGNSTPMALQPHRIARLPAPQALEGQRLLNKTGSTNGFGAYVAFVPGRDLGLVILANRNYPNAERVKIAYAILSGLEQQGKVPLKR
Procedure: (§2) The resistant activity against β-lactamase of the product obtained above was as shown in Table 3 in which comparisons are shown:
(§3) The resistance of each compound against β-lactamase was determined by the iodometric assay method.

[7] = target: T2, Cephalosporinase Serratia W-8 (Serratia marcescens, UniProt P18539); assay: Resistance against β-lactamase, iodometric assay; assay type: biochemical; conditions: activity of control Cephalorigine assumed as 100
T2 construct: W-8; endogenous in cells; host or cells: Serratia W-8
T2 sequence (P18539 22-376): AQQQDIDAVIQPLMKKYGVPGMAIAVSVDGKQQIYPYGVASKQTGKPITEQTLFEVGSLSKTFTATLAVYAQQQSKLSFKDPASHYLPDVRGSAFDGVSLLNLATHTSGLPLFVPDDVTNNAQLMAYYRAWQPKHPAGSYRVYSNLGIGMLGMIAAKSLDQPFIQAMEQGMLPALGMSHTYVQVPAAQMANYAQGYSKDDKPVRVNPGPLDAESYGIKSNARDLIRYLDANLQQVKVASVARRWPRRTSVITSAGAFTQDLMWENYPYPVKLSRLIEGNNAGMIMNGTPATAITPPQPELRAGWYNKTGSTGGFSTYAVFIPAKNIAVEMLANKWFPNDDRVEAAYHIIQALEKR
Procedure: as §2, §3

[8] = test system: Penicillinase E. coli TK-3; assay: Resistance against β-lactamase, iodometric assay; assay type: biochemical; conditions: activity of control potassium Penicillin G assumed as 100
Procedure: as §2, §3

[9] = test system: Citrobacter freundii GN 346 (Cephalosporinase-producing bacterium); assay: MIC by plate method; assay type: cell-based; parameters: unit not given here; conditions: Heart Infusion agar pH 7.4, inoculum 10^4 cells per plate (10^6 cells/ml)
Procedure: as §1

[10] = test system: Acinetobacter calcoaceticus A-6; assay: MIC by plate method; assay type: cell-based; conditions: Heart Infusion agar pH 7.4, inoculum 10^4 cells per plate (10^6 cells/ml)
Procedure: as §1

[11] = test system: Citrobacter spp Toyama Citizen No. 31; assay: MIC by plate method; assay type: cell-based; conditions: Heart Infusion agar pH 7.4, inoculum 10^4 cells per plate (10^6 cells/ml)
Procedure: as §1

In the case of `CCN1CCN(C(=O)N[C@@H](C(=O)N[C@]2(OC)C(=O)N3C(C(=O)O)=C(COC(C)=O)CS[C@@H]32)c2ccccc2)C(=O)C1=O` [Compound No. 4, 7β-[D(-)-α-(4-ethyl-2,3-dioxo-1-piperazinylcarbonylamino)phenylacetamido]-7α-methoxy-3-acetoxymethyl-Δ^3-cephem-4-carboxylic acid], the “minimum inhibitory concentration (MIC)” value [1] is reported as 100, the “minimum inhibitory concentration (MIC)” value (Escherichia coli NIHJ) is reported as at most 0.1 and the “minimum inhibitory concentration (MIC)” value [2] is reported as 1.56. The “minimum inhibitory concentration (MIC)” value [3] was 1.56, the “minimum inhibitory concentration (MIC)” value [4] was 50 and the “minimum inhibitory concentration (MIC)” value (Serratia marcescens W-8) was 200. The “minimum inhibitory concentration (MIC)” value [5] was 12.5, the “relative activity value, Cephalosporinase Pseudomonas aeruginosa TN 918” value [6] was under 0.4 and the “relative activity value, Cephalosporinase Serratia W-8” value [7] was under 0.06. The “relative activity value, Penicillinase E. coli TK-3” value [8] was under 0.04.

For `CCN1CCN(C(=O)N[C@@H](C(=O)N[C@]2(OC)C(=O)N3C(C(=O)O)=C(CSc4nnc(C)s4)CS[C@@H]32)c2ccccc2)C(=O)C1=O` [Compound No. 3, 7β-[D(-)-α-(4-ethyl-2,3-dioxo-1-piperazinylcarbonylamino)phenylacetamido]-7α-methoxy-3-[2-(5-methyl-1,3,4-thiadiazolyl)thiomethyl]-Δ^3-cephem-4-carboxylic acid], the “minimum inhibitory concentration (MIC)” value [9] was over 200, the “minimum inhibitory concentration (MIC)” value [1] was 100 and the “minimum inhibitory concentration (MIC)” value (Escherichia coli NIHJ) was at most 0.1. The “minimum inhibitory concentration (MIC)” value [2] was 1.56, the “minimum inhibitory concentration (MIC)” value [3] was 3.13 and the “minimum inhibitory concentration (MIC)” value [4] was 100. The “minimum inhibitory concentration (MIC)” value (Serratia marcescens W-8) was 200, the “minimum inhibitory concentration (MIC)” value [5] was 12.5 and the “minimum inhibitory concentration (MIC)” value [10] was 25. The “minimum inhibitory concentration (MIC)” value [11] was 6.25.

For `CCN1CCN(C(=O)N[C@@H](C(=O)N[C@]2(OC)C(=O)N3C(C(=O)O)=C(COC(C)=O)CS[C@@H]32)c2ccc(O)cc2)C(=O)C1=O` [Compound No. 5, 7β-[D(-)-α-(4-ethyl-2,3-dioxo-1-piperazinylcarbonylamino)-p-hydroxyphenylacetamido]-7α-methoxy-3-acetoxymethyl-Δ^3-cephem-4-carboxylic acid], the “minimum inhibitory concentration (MIC)” value [9] was 25, the “minimum inhibitory concentration (MIC)” value [1] was 100 and the “minimum inhibitory concentration (MIC)” value (Escherichia coli NIHJ) was at most 0.1. The “minimum inhibitory concentration (MIC)” value [2] was 0.78, the “minimum inhibitory concentration (MIC)” value [3] was 3.13 and the “minimum inhibitory concentration (MIC)” value [4] was 12.5. For the same molecule, the “minimum inhibitory concentration (MIC)” value (Serratia marcescens W-8) was 200 and the “minimum inhibitory concentration (MIC)” value [5] was 25.

`CCN1CCN(C(=O)N[C@@H](C(=O)N[C@]2(OC)C(=O)N3C(C(=O)O)=C(CSc4nnnn4C)CS[C@@H]32)c2ccccc2)C(=O)C1=O` [Compound No. 1, 7β-[D(-)-α-(4-ethyl-2,3-dioxo-1-piperazinylcarbonylamino)phenylacetamido]-7α-methoxy-3-[5-(1-methyl-1,2,3,4-tetrazolyl)thiomethyl]-Δ^3-cephem-4-carboxylic acid] was tested, and the “minimum inhibitory concentration (MIC)” value [9] was 100, the “minimum inhibitory concentration (MIC)” value [1] was 25 and the “minimum inhibitory concentration (MIC)” value (Escherichia coli NIHJ) was at most 0.1. For the same molecule, the “minimum inhibitory concentration (MIC)” value [2] was 0.78, the “minimum inhibitory concentration (MIC)” value [3] was 0.78 and the “minimum inhibitory concentration (MIC)” value [4] was 12.5. The “minimum inhibitory concentration (MIC)” value (Serratia marcescens W-8) was 50, the “minimum inhibitory concentration (MIC)” value [5] was 6.25 and the “minimum inhibitory concentration (MIC)” value [10] was 12.5. The “minimum inhibitory concentration (MIC)” value [11] was 1.56.

With `CC1(C)S[C@@H]2[C@H](NC(=O)Cc3ccccc3)C(=O)N2[C@H]1C(=O)O` [Potassium Penicillin G] the “relative activity value, Cephalosporinase Pseudomonas aeruginosa TN 918” value [6] was 16, the “relative activity value, Cephalosporinase Serratia W-8” value [7] was 21 and the “relative activity value, Penicillinase E. coli TK-3” value [8] was 100.

With `CCN1CCN(C(=O)N[C@@H](C(=O)N[C@]2(OC)C(=O)N3C(C(=O)O)=C(CSc4nnnn4C)CS[C@@H]32)c2ccc(O)cc2)C(=O)C1=O` [Compound No. 2, 7β-[D(-)-α-(4-ethyl-2,3-dioxo-1-piperazinylcarbonylamino)-p-hydroxyphenylacetamido]-7α-methoxy-3-[5-(1-methyl-1,2,3,4-tetrazolyl)thiomethyl]-Δ^3-cephem-4-carboxylic acid] the “minimum inhibitory concentration (MIC)” value [9] was 100, the “minimum inhibitory concentration (MIC)” value [1] was 100 and the “minimum inhibitory concentration (MIC)” value (Escherichia coli NIHJ) was at most 0.1. The “minimum inhibitory concentration (MIC)” value [2] was 0.2, the “minimum inhibitory concentration (MIC)” value [3] was 0.39 and the “minimum inhibitory concentration (MIC)” value [4] was 6.25. The “minimum inhibitory concentration (MIC)” value (Serratia marcescens W-8) was 100, the “minimum inhibitory concentration (MIC)” value [5] was 6.25 and the “minimum inhibitory concentration (MIC)” value [10] was 6.25. The “minimum inhibitory concentration (MIC)” value [11] was 1.56.

In the case of `O=C(Cc1cccs1)N[C@@H]1C(=O)N2C(C(=O)[O-])=C(C[n+]3ccccc3)CS[C@H]12` [Cephalorigine], the “relative activity value, Cephalosporinase Pseudomonas aeruginosa TN 918” value [6] is reported as 100, the “relative activity value, Cephalosporinase Serratia W-8” value [7] is reported as 100 and the “relative activity value, Penicillinase E. coli TK-3” value [8] is reported as 115.

— patent publication US4200744A, “Substituted 7α-methoxy-7β[(2,3-dioxo-1-piperazinyl)carbonylaminophenylace tamido]cephalosporins” (Toyama Chemical Company, Limited, priority 1977, dated 1980)
